Measurements published in the NIST ThermoML archive (doi:10.1016/j.jct.2016.10.009).

Settings: Liquid, Vibrating tube method

CCC(C)O (configuration not stated) [butan-2-ol]
mass density [kg/m3]
Settings | 293.15 K | 298.15 K | 313.15 K | 333.15 K | 353.19 K | 373.24 K | 393.28 K
100 kPa | 806.7 | 802.6 | 789.6 | 770.8 | 750.3 | – | –
1000 kPa | 807.4 | 803.3 | 790.3 | 771.8 | 751.4 | 729.1 | 704.8
5000 kPa | 810.4 | 806.4 | 793.7 | 775.7 | 756 | 734.5 | 711.3
10000 kPa | 814 | 810.1 | 797.8 | 780.3 | 761.3 | 740.8 | 718.8
15000 kPa | 817.4 | 813.7 | 801.6 | 784.7 | 766.4 | 746.6 | 725.6
20000 kPa | 820.7 | 817 | 805.3 | 788.9 | 771 | 751.9 | 731.7
25000 kPa | 823.9 | 820.2 | 808.6 | 792.7 | 775.4 | 757 | 737.4
30000 kPa | 826.9 | 823.4 | 812.1 | 796.4 | 779.5 | 761.6 | 742.7
35000 kPa | 829.8 | 826.4 | 815.3 | 800 | 783.5 | 766.1 | 747.8
40000 kPa | 832.7 | 829.2 | 818.4 | 803.5 | 787.2 | 770.3 | 752.5
45000 kPa | 835.4 | 832 | 821.3 | 806.6 | 790.8 | 774.4 | 757
50000 kPa | 838.1 | 834.7 | 824.3 | 809.8 | 794.4 | 778.1 | 761.2
55000 kPa | 840.6 | 837.4 | 827.1 | 812.8 | 797.7 | 781.8 | 765.4
60000 kPa | 843.2 | 839.9 | 829.8 | 815.8 | 801 | 785.3 | 769.2
65000 kPa | 845.6 | 842.4 | 832.5 | 818.7 | 804.1 | 788.8 | 772.9
70000 kPa | 848 | 844.8 | 835 | 821.4 | 807.2 | 792.1 | 776.6
80000 kPa | 852.6 | 849.5 | 839.9 | 826.8 | 812.9 | 798.4 | 783.4
90000 kPa | 857.1 | 854.1 | 844.7 | 831.9 | 818.3 | 804.3 | 789.8
100000 kPa | 861.2 | 858.3 | 849.1 | 836.7 | 823.5 | 809.8 | 795.8
110000 kPa | 865.3 | 862.4 | 853.5 | 841.3 | 828.5 | 815.1 | 801.5
120000 kPa | 869.2 | 866.3 | 857.6 | 845.6 | 833.1 | 820.1 | 806.8
130000 kPa | 873 | 870.1 | 861.5 | 849.9 | 837.6 | 824.9 | 811.9
140000 kPa | 876.6 | 873.9 | 865.4 | 853.9 | 842 | 829.5 | 816.8

CC(C)OC(C)C [diisopropyl ether]
mass density [kg/m3]
Settings | 293.15 K | 298.15 K | 313.15 K | 333.15 K | 353.19 K | 373.24 K | 393.28 K
100 kPa | 723.5 | 718.3 | 702.4 | 680.5 | – | – | –
1000 kPa | 724.6 | 719.6 | 703.8 | 682.1 | 659.5 | 635.6 | 609.5
5000 kPa | 729.4 | 724.5 | 709.4 | 688.9 | 667.6 | 645.5 | 622.1
10000 kPa | 734.9 | 730.2 | 715.8 | 696.4 | 676.5 | 656.1 | 635
15000 kPa | 740 | 735.6 | 721.7 | 703.2 | 684.4 | 665.3 | 645.8
20000 kPa | 744.8 | 740.5 | 727.2 | 709.4 | 691.5 | 673.5 | 655.2
25000 kPa | 749.4 | 745.2 | 732.1 | 715.1 | 698 | 680.8 | 663.5
30000 kPa | 753.7 | 749.6 | 737.1 | 720.5 | 704 | 687.6 | 671.1
35000 kPa | 757.7 | 753.7 | 741.6 | 725.6 | 709.7 | 693.8 | 677.9
40000 kPa | 761.6 | 757.8 | 745.9 | 730.3 | 714.8 | 699.6 | 684.3
45000 kPa | 765.3 | 761.6 | 750 | 734.8 | 719.7 | 705 | 690.2
50000 kPa | 768.9 | 765.2 | 753.9 | 739.1 | 724.6 | 710.1 | 695.8
55000 kPa | 772.4 | 768.8 | 757.7 | 743.1 | 728.9 | 714.9 | 701.1
60000 kPa | 775.7 | 772.2 | 761.3 | 747.1 | 733.2 | 719.5 | 705.9
65000 kPa | 778.9 | 775.4 | 764.8 | 750.9 | 737.2 | 723.9 | 710.6
70000 kPa | 782 | 778.6 | 768.1 | 754.4 | 741.1 | 728.1 | 715.2
80000 kPa | 787.9 | 784.6 | 774.4 | 761.3 | 748.4 | 735.9 | 723.5
90000 kPa | 793.5 | 790.3 | 780.5 | 767.7 | 755.4 | 743.2 | 731.3
100000 kPa | 798.8 | 795.7 | 786.1 | 773.7 | 761.6 | 750 | 738.4
110000 kPa | 803.9 | 800.8 | 791.4 | 779.4 | 767.8 | 756.3 | 745.3
120000 kPa | 808.7 | 805.6 | 796.5 | 784.7 | 773.4 | 762.3 | 751.4
130000 kPa | 813.2 | 810.3 | 801.4 | 789.9 | 778.8 | 768 | 757.4
140000 kPa | 817.6 | 814.6 | 806 | 794.8 | 784 | 773.3 | 763.1
